Like-named read-outs stand apart in the source and are kept apart here.
Assays:
[1] = molecular target: T1, jojoba acyl-CoA reductase (Simmondsia chinensis, UniProt Q9XGY7); settings: for inhibitory effect on reductase activity (in words): known reductase/synthase inhibitors and sulphydryl blocking agents
T1 sequence (Q9XGY7 1-493): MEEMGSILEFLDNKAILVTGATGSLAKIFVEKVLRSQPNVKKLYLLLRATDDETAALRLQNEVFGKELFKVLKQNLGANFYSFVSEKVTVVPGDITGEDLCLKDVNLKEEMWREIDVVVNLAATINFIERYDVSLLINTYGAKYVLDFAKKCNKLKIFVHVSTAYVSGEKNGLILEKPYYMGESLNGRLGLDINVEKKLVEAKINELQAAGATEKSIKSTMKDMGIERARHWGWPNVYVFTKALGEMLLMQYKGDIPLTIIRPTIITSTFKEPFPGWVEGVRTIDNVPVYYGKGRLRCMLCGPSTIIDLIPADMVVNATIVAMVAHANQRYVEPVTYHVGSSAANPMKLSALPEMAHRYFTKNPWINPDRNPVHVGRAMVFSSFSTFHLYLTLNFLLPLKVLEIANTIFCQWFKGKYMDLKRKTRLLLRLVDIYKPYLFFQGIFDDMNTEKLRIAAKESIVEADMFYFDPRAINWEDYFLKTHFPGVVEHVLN
Description: Reductase activity in a microsomal membrane preparation is measured by incubation of 20 μM [1-^14 C]acyl-CoA (usually tetracosenoyl-CoA, sp. act. 2-5 Ci/mol) with the sample to be assayed and 2 mM NADPH, in a total volume of 0.25 ml. The incubation mixture also contains 10% w/v glycerol, 1 mM DTT, and is buffered with 50 mM HEPES (4-[2-hydroxyethyl]-1-piperazineethane-sulfonic acid) (HEPES, here and as refered to hereafter is added from a 1M stock solution adjusted to pH 7.5) .
The assay is started by the addition of acyl-CoA substrate and the incubation is carried out at 30° C. for one hour. The assay is terminated by placing the assay tube on ice and immediately adding 0.25 ml isopropanol:acetic acid (5:1 v/v) . Unlabeled wax esters (0.1 mg) and oleyl alcohol (0.1 mg) are added as carriers. The [^14 C] lipids are extracted by the scaled-down protocol of Hara and Radin (Anal. Biochem. (1978) 90:420). Six ml of hexane/isopropanol (3:2, v/v) is added to the terminated assay. The sample is vortexed, 2 ml of aqueous sodium sulphate solution (5.5% w/v) is added, and the sample is again vortexed.
The microsomal membrane preparation described above is used for further characterization of the reductase enzyme. […] Characterization experiments were conducted at pH 7.5, which is close to the presumed physiological pH of the cytoplasm.
1. Salt Effects: A variety of salts were examined for their effect on reductase activity using a standard concentration of 0.5M for monobasic salts. Salts with divalent cations or anions were examined at 0.167M (to give the same ionic strength as the 0.5M monobasic salts) and also at 0.5M.
4. Reductase Inhibitor Assays: Several known inhibitors of other types of reductase proteins were tested for their effect on the jojoba acyl-CoA reductase activity.
Sulphydryl blocking agents were also screened for their effect on reductase activity.

[2] = system: jojoba acyl-CoA reductase; experiment: Acyl (substrate) specificity of the reductase, microsomal membrane preparation; format: biochemical; settings: substrates compared at 10 uM, 0.5M NaCl
From the text: (§1) 3. […] NaCl concentration in these assays is 0.5M.

[3] = molecular target: T1, jojoba acyl-CoA reductase; experiment: Competitive inhibition experiment, unlabelled palmitoyl-CoA vs [1-14C]tetracosenoyl-CoA; format: biochemical; set-up: The microsomal membrane preparation described above is used for further characterization of the reductase enzyme; from tissue; host or cells: developing jojoba embryos (seed coats removed), microsomal membrane preparation; settings: unlabelled inhibitor 0-30 μM; [1-14C]tetracosenoyl-CoA 20 μM; read-out: concentration giving 50% inhibition of reductase activity towards tetracosenoyl-CoA
[4] = molecular target: T1, jojoba acyl-CoA reductase; experiment: Acyl (substrate) specificity of the reductase, microsomal membrane preparation; format: biochemical; set-up: The microsomal membrane preparation described above is used for further characterization of the reductase enzyme; from tissue; host or cells: developing jojoba embryos (seed coats removed), microsomal membrane preparation; settings: acyl-CoA thioester as substrate at 10 μM; 0.5M NaCl; pH 7.5
From the text: as §1

jojoba acyl reductase = molecular target: T2, jojoba acyl reductase (Simmondsia chinensis, UniProt Q9XGY7); experiment: Detergent inhibition of reductase activity and its reversibility; format: biochemical
T2 construct: The microsomal membrane preparation described above is used for further characterization of the reductase enzyme; from tissue; host or cells: developing jojoba embryos (seed coats removed), microsomal membrane preparation
T2 sequence (Q9XGY7 1-493): T1 sequence (Q9XGY7 1-493)
From the text: Often, detergents which are used to solubilize membrane proteins are found to inhibit the enzymatic activity of a desired protein. […] However, as apparent detergent inhibition of reductase activity may be due to some effect other than irreversible inhibition of the enzyme, the reversibility of inhibition by CHAPS was examined.
A protocol for solubilizing jojoba acyl reductase activity utilizing the detergent CHAPS has been devised which yields approximately 85% of the reductase activity from the microsomal membrane preparation. This method is discussed in detail in Example 2. Similarly, studies of reversibility of apparent reductase inhibition by other detergents may be conducted to identify other useful detergents for solubilization of acyl reductase activity for jojoba or other candidate reductases.

[5] = system: jojoba acyl-CoA reductase; settings: previously shown, Pollard et al.; cited from earlier work
[6] = 0.5M for monobasic salts, divalent salts at 0.167M and 0.5M
[7] = millimolar concentrations (given for CoA and NADP+)

O[C@H](CS)[C@H](O)CS (racemic) [Dithiothreitol]
effect on reductase activity (in words) ([1]; other effectors, pH 7.5): stimulatory

CCCCCCCCCCCCCCCC(=O)SCCNC(=O)CCNC(=O)[C@H](O)C(C)(C)COP(=O)(O)OP(=O)(O)OC[C@H]1O[C@@H](n2cnc3c(N)ncnc32)[C@H](O)[C@@H]1OP(=O)(O)O [16:0 Acyl-CoA, palmitoyl-CoA]
activity as substrate of the reductase (in words) [2]: barely above background | IC50 [3]: 5 µM

CCCCCCCCCCCCCCCCCC(=O)SCCNC(=O)CCNC(=O)[C@H](O)C(C)(C)COP(=O)(O)OP(=O)(O)OC[C@H]1O[C@@H](n2cnc3c(N)ncnc32)[C@H](O)[C@@H]1OP(=O)(O)O [18:0 Acyl-CoA]
Reductase Activity, Acyl-CoA (10 μM) [4]: 1.4 pmol/min/µL

CCCCCCCC/C=C\CCCCCCCCCC(=O)SCCNC(=O)CCNC(=O)[C@H](O)C(C)(C)COP(=O)(O)OP(=O)(O)OC[C@H]1O[C@@H](n2cnc3c(N)ncnc32)[C@H](O)[C@@H]1OP(=O)(O)O [20:1 Acyl-CoA]
Reductase Activity, Acyl-CoA (10 μM) [4]: 1.0 pmol/min/µL

CCCCCCCC/C=C\CCCCCCCCCCCC(=O)SCCNC(=O)CCNC(=O)[C@H](O)C(C)(C)COP(=O)(O)OP(=O)(O)OC[C@H]1O[C@@H](n2cnc3c(N)ncnc32)[C@H](O)[C@@H]1OP(=O)(O)O [22:1 Acyl-CoA]
Reductase Activity, Acyl-CoA (10 μM) [4]: 1.0 pmol/min/µL

C[C@H](CCC(=O)NCCC[N+](C)(C)CCCS(=O)(=O)[O-])[C@H]1CC[C@H]2[C@@H]3[C@H](O)C[C@@H]4C[C@H](O)CC[C@]4(C)[C@H]3C[C@H](O)[C@]12C [CHAPS, 3-[(3-cholamidopropyl)-dimethyl-ammonio]-1-propanesulfonate]
inhibition of reductase activity by detergent (in words) (jojoba acyl reductase; at concentrations above the CMC): strong inhibition | reversibility of detergent inhibition (in words) (jojoba acyl reductase; enzyme exposed on ice, then returned to a concentration at or below the CMC): complete recovery of reductase activity

[Ca+2].[Cl-].[Cl-] [CaCl2]
salt effect on reductase activity (in words) [1, 6]: stimulate reductase activity

C/C=C/C/C=C/CCC(=O)[C@H]1O[C@H]1C(N)=O [Cerulinen]
inhibitory effect on reductase activity (in words) [1]: no strong inhibitory effect

CC(C)(COP(=O)(O)OP(=O)(O)OC[C@H]1O[C@@H](n2cnc3c(N)ncnc32)[C@H](O)[C@@H]1OP(=O)(O)O)[C@@H](O)C(=O)NCCC(=O)NCCS [CoA, CoenzymeA]
effect on reductase activity (in words) [1, 7]: significant inhibition

[Cl-].[K+] [KCl]
salt effect on reductase activity (in words) [1, 6]: stimulate reductase activity

N#CS [KSCN]
salt effect on reductase activity (in words) [1]: no stimulation or marginal stimulation

[Cl-].[Li+] [LiCl]
salt effect on reductase activity (in words) [1, 6]: stimulate reductase activity

CC[C@H](C)C(=O)O[C@H]1C[C@@H](C)C=C2C=C[C@H](C)[C@H](CC[C@@H]3C[C@@H](O)CC(=O)O3)[C@H]21 [Mevinolin]
concentration at which an effect on jojoba acyl-CoA reductase activity was seen ([1]; only had an effect at relatively high concentrations): 100 µM

[Cl-].[Cl-].[Mg+2] [MgCl2]
salt effect on reductase activity (in words) [1, 6]: stimulate reductase activity

CCN1C(=O)C=CC1=O [N-ethylmaleimide]
inhibitory effect on reductase activity (in words) [1]: strongly inhibit

NC(=O)c1ccc[n+]([C@@H]2O[C@H](COP(=O)([O-])OP(=O)(O)OC[C@H]3O[C@@H](n4cnc5c(N)ncnc54)[C@H](O)[C@@H]3O)[C@@H](O)[C@H]2O)c1 [NAD+]
effect on reductase activity (in words) [1, 7]: marginal effects

NC(=O)C1=CN([C@@H]2O[C@H](COP(=O)(O)OP(=O)(O)OC[C@H]3O[C@@H](n4cnc5c(N)ncnc54)[C@H](O)[C@@H]3O)[C@@H](O)[C@H]2O)C=CC1 [NADH]
cofactor-dependent reductase activity relative to the NADPH-dependent activity ([1]; cofactor in place of NADPH, not measurable above background): < 2% | effect on reductase activity (in words) [1, 7]: marginal effects

NC(=O)c1ccc[n+]([C@@H]2O[C@H](COP(=O)([O-])OP(=O)(O)OC[C@H]3O[C@@H](n4cnc5c(N)ncnc54)[C@H](OP(=O)(O)O)[C@@H]3O)[C@@H](O)[C@H]2O)c1 [NADP+]
effect on reductase activity (in words) [1, 7]: significant inhibition

O=S(=O)([O-])[O-].[Na+].[Na+] [Na2 SO4]
salt effect on reductase activity (in words) [1, 6]: stimulate reductase activity

[Cl-].[Na+] [NaCl]
stimulation of reductase activity ([1]; microsomes, 500000 µM): Up to 15 fold

O=C(O)CN(CCN(CC(=O)O)CC(=O)O)CC(=O)O [ethylenediaminetetraacetic acid]
optimum concentration for stimulation of reductase activity [1]: 2.5 mM | effect on reductase activity (in words) ([1]; pH 7.5): some stimulation

NC(=O)CI [iodoacetamide]
inhibitory effect on reductase activity (in words) [1]: no effect

O=C(O)c1cc[c]([Hg][OH])cc1 [para-hydroxymercuribenzoate]
inhibitory effect on reductase activity (in words) [1]: some inhibitory effect

palmitoyl-ACP [16:0 Acyl-ACP]
activity as substrate of the reductase (in words) [2]: high

stearoyl-ACP
activity as substrate of the reductase (in words) [5]: activity as a substrate
